# No end group written: not given here.
# Tests used:
# [1] = test system: Bacillus cereus; test: microbe, parasite or virus in culture
# Method: (§1) The susceptibility test of microorganisms was performed to evaluate the inhibitory activity of the IAPs. Protocols M7-A10[50], M27-A3[51] and M38-A2[52] from Clinical & Laboratory Standards Institute (CLSI) were used for bacteria, yeasts and filamentous fungi tests, respectively. Briefly, different concentration of IAPs (256-0.5 µM) were tested against 16 microorganisms, in a final volume of 100 µL. Media conditions, final cell concentration and incubation conditions are presented in Supplementary Material 07, Table S5. Three biological repetitions, with 2 technical replicates each, were performed for each test, on polystyrene flat-bottom 96 wells microplates. The minimum inhibitory concentration (MIC) was defined as the concentration that no cells/hyphae were detected when visualized by optical microscopy.
# (§2) Supplementary Material 07, Table S5
# (§3) Table S5. Microorganisms and growth conditions.
# [2] = test system: Bacillus subtilis; test: microbe, parasite or virus in culture
# Method: as §1, §2, §3
# [3] = test system: Trichoderma asperellum; test: microbe, parasite or virus in culture; conditions: RPMI 1640 pH 7.0; 28 °C, 48 h; start 2.5 x 10 3; 256-0.5 µM; mean ± SD of 3 biological repetitions (SD 0 not displayed); N/A = no antimicrobial activity observed
# Method: as §1, §2, §3
# [4] = test system: Staphylococcus aureus; test: microbe, parasite or virus in culture
# Method: as §1, §2, §3
# [5] = test system: Candida albicans; test: microbe, parasite or virus in culture; conditions: ATCC 90028; RPMI 1640 pH 7.0; 37 °C, 48 h; start 2.5 x 10^3 cells; 256-0.5 µM; mean ± SD of 3 biological repetitions (SD 0 not displayed); no cells seen by optical microscopy; N/A = no antimicrobial activity observed
# Method: as §1, §2, §3
# [6] = test system: Erwinia carotovora; test: microbe, parasite or virus in culture; conditions: 24 h
# Method: as §1, §2, §3
# [7] = test system: Xanthomonas campestris; test: microbe, parasite or virus in culture; conditions: 24 h
# Method: as §1, §2, §3
# [8] = test system: Escherichia coli; test: microbe, parasite or virus in culture
# Method: as §1, §2, §3
# [9] = test system: Fusarium oxysporum; test: microbe, parasite or virus in culture; conditions: RPMI 1640 pH 7.0; 28 °C, 48 h; start 2.5 x 10 3; 256-0.5 µM; mean ± SD of 3 biological repetitions (SD 0 not displayed); N/A = no antimicrobial activity observed
# Method: as §1, §2, §3
# [10] = test system: Cryptococcus neoformans; test: microbe, parasite or virus in culture; conditions: ATCC 28957; RPMI 1640 pH 7.0; 37 °C, 72 h; start 2.5 x 10^3 cells; 256-0.5 µM; mean ± SD of 3 biological repetitions (SD 0 not displayed); N/A = no antimicrobial activity observed
# Method: as §1, §2, §3
# [11] = test system: Ramularia areola; test: microbe, parasite or virus in culture; conditions: RPMI 1640 pH 7.0; 25 °C, 120 h; start 2.5 x 10 3; 256-0.5 µM; mean ± SD of 3 biological repetitions (SD 0 not displayed); N/A = no antimicrobial activity observed
# Method: as §1, §2, §3
# [12] = test system: Pseudomonas syringae pv. tabaci; test: microbe, parasite or virus in culture; conditions: 24 h
# Method: as §1, §2, §3
# [13] = test system: human red blood cells; test: Cytotoxicity: hemolysis of human red blood cells; type: cell-based; conditions: SC50 = IAP concentration that at least 50% of red blood cells remain intact; 128 µM–0.5 µM tested; PBS, 30 minutes, 37 °C; absorbance 540 nm
# In short: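 Human red blood cells (2.5 × 10^5 cells.mL^−1 final) exposed to 128 µM–0.5 µM peptide in PBS for 30 min at 37 °C with shaking. Hemoglobin release read at 540 nm in supernatant; lysis relative to 0.1% Triton X-100 (100%) after PBS subtraction.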
# [14] = test system: Fusarium oxysporum f.sp. vasinfectum; conditions: RPMI 1640 pH 7.0; 28 °C, 72 h; start 2.5 x 10 3; 256-0.5 µM; mean ± SD of 3 biological repetitions (SD 0 not displayed); N/A = no antimicrobial activity observed
# Method: as §1, §2, §3
# [15] = test system: Rhizoctonia solani; conditions: RPMI 1640 pH 7.0; 28 °C, 48 h; start 2.5 x 10 3; 256-0.5 µM; mean ± SD of 3 biological repetitions (SD 0 not displayed); N/A = no antimicrobial activity observed
# Method: as §1, §2, §3
# [16] = test system: Fusarium solani; conditions: RPMI 1640 pH 7.0; 28 °C, 48 h; start 2.5 x 10 3; 256-0.5 µM; mean ± SD of 3 biological repetitions (SD 0 not displayed); N/A = no antimicrobial activity observed
# Method: as §1, §2, §3
# [17] = test system: Pseudomonas aeruginosa; test: microbe, parasite or virus in culture; conditions: Pseudomonas aeruginosa, ATCC27853, 24 h, read-out: Minimum inhibitory concentration, Pseudomonas aeruginosa
# Method: as §1, §2, §3
# [18] = test system: Escherichia coli; test: Microbicidal activity (minimal killing concentration), plating on agar; type: cell-based, Escherichia coli ATCC 25922; conditions: 10 µL of MIC and raising concentrations up to 256 µM plated on Mueller-Hinton agar; 37 °C, 24 h; no growth; mean ± SD, 3 biological replicates
# Method: (§4) The microbicidal activity of the IAPS was also evaluated. […] YPD agar and Mueller-Hinton agar were used for fungi/yeasts and bacteria, respectively. Meanwhile, susceptibility microplates were incubated again to evaluate if there would be any growing after a longer period. For both approaches, the minimal killing concentration (MKC) was defined as the concentration that no growth was observed after incubation. Three biological replicates were performed for each test.
# as §2, §3
# (§5) Microorganisms Incubation Incubation Starting cell Growth Medium
# [19] = test system: Bacillus cereus; test: as above; type: cell-based, Bacillus cereus ATCC 14579; conditions: 10 µL of MIC and raising concentrations up to 256 µM plated on Mueller-Hinton agar; 37 °C, 24 h; no growth; mean ± SD, 3 biological replicates
# Method: as §4, §2, §3, §5
# [20] = test system: Pseudomonas aeruginosa; test: as above; type: cell-based, Pseudomonas aeruginosa ATCC 27853; conditions: 10 µL of MIC and raising concentrations up to 256 µM plated on Mueller-Hinton agar; 37 °C, 24 h; no growth; mean ± SD, 3 biological replicates
# Method: as §4, §2, §3, §5
# [21] = test system: Erwinia carotovora; test: as above; type: cell-based; conditions: 10 µL of MIC and raising concentrations up to 256 µM plated on Mueller-Hinton agar; 28 °C, 24 h; no growth; mean ± SD, 3 biological replicates
# Method: as §4, §2, §3, §5
# (§6) Temperature (°C) Time (h) concentration
# (§7) Erwinia carotovora 28 24 5.0 x 10 5 Mueller -Hinton
# (§8) Xanthomonas campestris pv. citri 28 24 5.0 x 10 5 Mueller -Hinton
# (§9) Pseudomonas syringae pv. tabaci 28 24 5.0 x 10 5 Mueller -Hinton
# [22] = test system: Pseudomonas syringae pv. tabaci; test: as above; type: cell-based; conditions: 10 µL of MIC and raising concentrations up to 256 µM plated on Mueller-Hinton agar; 28 °C, 24 h; no growth; mean ± SD, 3 biological replicates
# Method: as §4, §2, §3, §5, §6, §7, §8, §9
# [23] = test system: Bacillus subtilis; test: as above; type: cell-based, Bacillus subtilis ATCC 23857; conditions: 10 µL of MIC and raising concentrations up to 256 µM plated on Mueller-Hinton agar; 37 °C, 24 h; no growth; mean ± SD, 3 biological replicates
# Method: as §4, §2, §3, §5
# [24] = test system: Xanthomonas campestris; test: as above; type: cell-based, Xanthomonas campestris pv. citri; conditions: 10 µL of MIC and raising concentrations up to 256 µM plated on Mueller-Hinton agar; 28 °C, 24 h; no growth; mean ± SD, 3 biological replicates
# Method: as §4, §2, §3, §5, §6, §7, §8, §9
# [25] = test system: Staphylococcus aureus; test: as above; type: cell-based, Staphylococcus aureus ATCC 25923; conditions: 10 µL of MIC and raising concentrations up to 256 µM plated on Mueller-Hinton agar; 37 °C, 24 h; no growth; mean ± SD, 3 biological replicates
# Method: as §4, §2, §3, §5, §6, §7, §8, §9
# [26] = Mueller-Hinton, 28 °C, start 5.0 x 10^5 cells, 256-0.5 µM, mean ± SD of 3 biological repetitions (SD 0 not displayed), N/A = no antimicrobial activity observed
compound,measurement,setting,value
FFGHIWHGARTLFRDVFA-NH2 [Cs02],"Minimum inhibitory concentration, Bacillus cereus","[1]; ATCC 14579, Mueller-Hinton, 37 °C, 24 h, start 5.0 x 10^5 cells, 256-0.5 µM, mean ± SD of 3 biological repetitions (SD 0 not displayed), N/A = no antimicrobial activity observed",64.0 µM
same,"Minimum inhibitory concentration, Bacillus subtilis","[2]; ATCC 23857, Mueller-Hinton, 37 °C, 24 h, start 5.0 x 10^5 cells, 256-0.5 µM, mean ± SD of 3 biological repetitions (SD 0 not displayed), N/A = no antimicrobial activity observed",3.33 ± 1.15 µM
same,"Minimum inhibitory concentration, Trichoderma asperellum",[3],8.0 µM
same,"Minimum inhibitory concentration, Staphylococcus aureus","[4]; ATCC 25923, Mueller-Hinton, 37 °C, 24 h, start 5.0 x 10^5 cells, 256-0.5 µM, mean ± SD of 3 biological repetitions (SD 0 not displayed), N/A = no antimicrobial activity observed",8.0 µM
same,"Minimum inhibitory concentration, Candida albicans",[5],32.0 µM
same,"Minimum inhibitory concentration, Erwinia carotovora",[6]; [26],32.0 µM
same,"Minimum inhibitory concentration, Xanthomonas campestris","[7]; pv. citri, Mueller-Hinton, 28 °C, start 5.0 x 10^5 cells, 256-0.5 µM, mean ± SD of 3 biological repetitions (SD 0 not displayed), N/A = no antimicrobial activity observed",32.0 µM
same,"Minimum inhibitory concentration, Escherichia coli","[8]; ATCC 25922, Mueller-Hinton, 37 °C, 24 h, start 5.0 x 10^5 cells, 256-0.5 µM, mean ± SD of 3 biological repetitions (SD 0 not displayed), N/A = no antimicrobial activity observed",8.0 µM
same,"Minimum inhibitory concentration, Fusarium oxysporum",[9],16.0 µM
same,"Minimum inhibitory concentration, Cryptococcus neoformans",[10],32.0 µM
same,"Minimum inhibitory concentration, Ramularia areola",[11],16.0 µM
same,"Minimum inhibitory concentration, Pseudomonas syringae pv. tabaci",[12]; [26],4.0 µM
same,Hemolytic activity of human red blood cells (%) SC50,[13],>128 µM
same,"Minimum inhibitory concentration, Fusarium oxysporum f.sp. vasinfectum",[14],13.33 ± 4.61 µM
same,"Minimum inhibitory concentration, Rhizoctonia solani",[15],32.0 µM
same,"Minimum inhibitory concentration, Fusarium solani",[16],8.0 µM
CNC(C)C1CCC(N)C(OC2C(N)CC(N)C(OC3OCC(C)(O)C(NC)C3O)C2O)O1 (centres unmarked) [Gentamicin],MIC,"[1]; Bacillus cereus, ATCC14579, 24 h, read-out: Minimum inhibitory concentration, Bacillus cereus",8.37 µM
same,MIC,"[2]; Bacillus subtilis, ATCC23857, 24 h, read-out: Minimum inhibitory concentration, Bacillus subtilis",0.033 µM
same,MIC,"[4]; Staphylococcus aureus, ATCC25923, 24 h, read-out: Minimum inhibitory concentration, Staphylococcus aureus",0.26 µM
same,MIC,"[6]; Pectobacterium carotovorum, read-out: Minimum inhibitory concentration, Erwinia carotovora",0.53 µM
same,MIC,"[7]; Xanthomonas campestris, read-out: Minimum inhibitory concentration, Xanthomonas campestris",0.53 µM
same,MIC,[17],0.13 µM
same,MIC,"[8]; Escherichia coli, ATCC25922, 24 h, read-out: Minimum inhibitory concentration, Escherichia coli",0.52 µM
same,MIC,"[12]; Pseudomonas syringae, read-out: Minimum inhibitory concentration, Pseudomonas syringae pv. tabaci",0.52 µM
same,"Minimum microbicidal concentration, Escherichia coli",[18],0.52 ± 0.0 µM
same,"Minimum microbicidal concentration, Bacillus cereus",[19],8.37 ± 0.0 µM
same,"Minimum microbicidal concentration, Pseudomonas aeruginosa",[20],0.52 ± 0.0 µM
same,"Minimum microbicidal concentration, Erwinia carotovora",[21],0.53 ± 0.0 µM
same,"Minimum microbicidal concentration, Pseudomonas syringae pv. tabaci",[22],0.52 ± 0.0 µM
same,"Minimum microbicidal concentration, Bacillus subtilis",[23],0.033 ± 0.0 µM
same,"Minimum microbicidal concentration, Xanthomonas campestris",[24],0.53 ± 0.0 µM
same,"Minimum microbicidal concentration, Staphylococcus aureus",[25],0.52 ± 0.0 µM
